Earlier results in patent publication US6455592B1, “Use of hydrophilic penetration agents in dermatological compositions for the treatment of onychomycoses, and corresponding compositions” (Novartis AG, priority 1991, dated 2002).
Where a name gives a salt, the structure may show the parent alone.

Conditions: oral treatment with 250 mg/day over 8 weeks

For CN(C/C=C/C#CC(C)(C)C)Cc1cccc2ccccc12 [terbinafine-HCl, Terbinafine hydrochloride], the “concentration of terbinafine-HCl in the nails” value is given as 0.4±0.15 ng of terbinafine-HCl per mg of nail material.
